This is an account of results in patent publication US10239836B2, “Benzenecarbothioccyclopenta[c] pyrrole-1,3-dione compounds and process for synthesis thereof” (Council of Scientific & Industrial Research, priority 2014, dated 2019).

pIC50: −log10 of the molar value. Read-outs that look alike come from different tables or passages of the source.

The test system of data set [1] is H1N1 virus. To be noted: MDCK cells; Yang et al., Organic Letter 2013; cited from earlier work.
For data set [2], the system named is RAW 264.7 cells. Nature of the data set: Cytotoxicity assay (MTT viability). The format is cell-based, Mouse. On the procedure:
(§1) Mouse macrophage cell line RAW 264.7 was maintained in laboratory at 37° C. in
(§2) RPMI-1640 media supplemented with 10% heat-inactivated fetal bovine serum (FBS) and penicillin/streptomycin.
(§3) Viability of cultured cells was determined by (4,5-dimethylthiazol-2-yl)-2,5-diphenyltetrazolium bromide (MTT; Sigma) as described earlier (1). RAW 264.7 was seeded in triplicate at a density of 2×10^4 cells per well on a 96-well plate. […] MTT solution (0.5 mg/ml) was then added to each well and incubate for 4 h at 37° C. At the end of the incubation period, the medium was removed and the resulting purple formazan was solubilized with acidic isopropanol (0.1 N HCl in absolute isopropanol), and the absorbance was read at 570 nm using Biorad Microplate reader (Biorad, USA).

For data set [3], the system named is LPS induced NO generation in RAW 264.7 cells. Nature of the data set: Inhibition of LPS induced NO generation (nitrite, Griess reagent). Conditions: for pIC50: RAW 264.7 cells, LPS 1 μg/ml, 24 h, serum-free, read-out: NO inhibition (B) IC50; for Selectivity index (A/B): cytotoxicity IC50 / NO inhibition IC50, RAW 264.7 cells. The format is cell-based, Mouse. The protocol:
as §1, §2
Nitrite, a stable oxidized product of NO, was measured in culture supernatant using Griess reagent (Sigma Aldrich) according to a previously reported method (2). After overnight seeding in 96-well plate (2×10^4 cells/well), RAW 264.7 cell was treated with lipopolysaccharide (LPS; Sigma) at a concentration of 1 μg/ml along with different doses of compounds (as determined from cytotoxicity assay) in serum-free culture for 24 h. Following treatment, media was collected and centrifuged at 2,000 rpm for 5 min to remove cellular debris. 50 μl of this media was then reacted with equal volume of Griess reagent for 15 min at room temperature in dark and absorbance was taken at 540 nm using Microplate reader (Biorad, USA). Nitrite concentrations were determined using standard solutions of sodium nitrite prepared in cell culture medium.

A short description of data set [4]: Cytotoxicity assay (MTT viability). The format is cell-based, Mouse. To be noted: mouse; RAW 264.7 cells, MTT, 24 h treatment, serum free. The protocol:
as §1, §2, §3

As to `O=C(S[C@@]12CC[C@H](O)[C@@H]1C(=O)NC2=O)c1ccc(O)cc1` [Nitrosporeusine A], the “inhibitory activities against the H1N1 virus” value in data set [1] was “exhibited inhibitory activities”.
For `CC(=O)O[C@@H]1CCC2=C1C(=O)NC2=O` [(−)-5, (R)-1,3-dioxo-1,2,3,4,5,6-hexahydrocyclopenta[c]pyrrol-4-yl], the pIC50 in data set [2] is 3.89; in data set [3], 3.06.
Regarding `O=C(S[C@]12CC[C@@H](O)[C@H]1C(=O)NC2=O)c1ccccc1` (relative stereo) [Compound 15, S-((3aR*,6R*,6aS*)-6-Hydroxy-1,3-dioxohexahydrocyclopenta[c]pyrrol-3a(1H)-yl) benzothioate], the melting point was in the range of 185 to 186 °C. The same compound showed an IC50 at 24 h in data set [4] of 479 µM. Moreover, in data set [3] (Mus musculus, RAW264.7), the pIC50 was 4.14. The “Selectivity index (A/B)” value in data set [3] is recorded as 6.622.
Taken in the same sequence, the figures for `O=C(S[C@]12CCC[C@H]1C(=O)NC2=O)c1ccccc1Cl` (relative stereo) [Compound 21, S-((3aR*,6aS*)-1,3-Dioxohexahydrocyclopenta[c]pyrrol-3a(1H)-yl) 2-chlorobenzothioate] were 188 to 190 °C, 834 µM, 4.22 and 13.95.
In the case of `O=C(S[C@@]12CC[C@@H](O)[C@@H]1C(=O)NC2=O)c1ccc(O)cc1` [Nitrosporeusine B], the “inhibitory activities against the H1N1 virus” value in data set [1] is on record as “exhibited inhibitory activities”.
